{
  "source": "patent US9687493B2",
  "about": "“Use of NK-1 receptor antagonists for treating hypomagnesemia, neurogenic inflammation, and cardiac dysfunction associated with EGFR-blocking drugs” (THE GEORGE WASHINGTON UNIVERSITY, priority 2014, dated 2017)",
  "key": {"[1]": {"conditions": "9 weeks; Emend co-treatment with erlotinib", "description": "At periodic intervals, blood was collected (˜0.5 ml) aseptically from the tail of anaesthetized rats (2% isoflurane, EZ Anesthesia Chamber with nose cone)(13, 14) in sterile microtainer plasma separator tubes containing heparin and the protease inhibitor, aprotinin (Sigma Chemicals, St. Louis Mo.) to yield final blood concentrations of 10.74 units/ml and 0.016 units/ml, respectively. For subsequent samplings, the scab was carefully removed, and the process was repeated. Plasma was obtained after centrifugation (12,000 rpm, 2 min, RT, IDEXX StatSpin VT, Iris International, Inc., Westwood, Mass.). Tail bleed samples were used for assessment of plasma Mg, and substance P levels. Sacrifice blood samples (˜8 ml collected in heparin plus aprotinin containing BD vacutainer SST tubes) were taken from anaesthetized, heparinized (0.3-0.4 ml 358 units/ml heparin in 0.9% NaCl, i.p.) rats from either the vena cava or by cardiac puncture, and were centrifuged (3,500 rpm, 10 min, RT). […]\nHypomagnesemia alone in rodents can promote neutrophil free radical generating activity (Mak et al., Exp. & Clin. Cardiol. 2011, 16(4):121-124; Mak et al., Magnesium Res 2003, 16(2):91-97). […] Circulating neutrophil basal superoxide generating activity was determined as SOD-inhibitable reduction of cytochrome c (FIG. 3A). Plasma 8-isoprostane was assessed by a colorimetric ELISA kit (FIG. 3B). […]"}, "neutrophils": {"test_system": "neutrophils", "description": "(§1) At periodic intervals, blood was collected (˜0.5 ml) aseptically from the tail of anaesthetized rats (2% isoflurane, EZ Anesthesia Chamber with nose cone)(13, 14) in sterile microtainer plasma separator tubes containing heparin and the protease inhibitor, aprotinin (Sigma Chemicals, St. Louis Mo.) to yield final blood concentrations of 10.74 units/ml and 0.016 units/ml, respectively. For subsequent samplings, the scab was carefully removed, and the process was repeated. Plasma was obtained after centrifugation (12,000 rpm, 2 min, RT, IDEXX StatSpin VT, Iris International, Inc., Westwood, Mass.). Tail bleed samples were used for assessment of plasma Mg, and substance P levels. Sacrifice blood samples (˜8 ml collected in heparin plus aprotinin containing BD vacutainer SST tubes) were taken from anaesthetized, heparinized (0.3-0.4 ml 358 units/ml heparin in 0.9% NaCl, i.p.) rats from either the vena cava or by cardiac puncture, and were centrifuged (3,500 rpm, 10 min, RT). In addition to the above plasma parameters, sacrifice plasma was also assayed for 8-isoprostane levels, and the whole blood samples were processed for neutrophil isolation and assessment of superoxide anion production.\nAt sacrifice, whole blood (3 ml) samples were obtained; neutrophils were isolated by a step-gradient centrifugation method (13,−16). Superoxide anion production from neutrophils (0.5-0.75×10^6/ml) with (stimulated) or without (basal) PMA (phorbol myristate acetate, 100 ng/ml) was assayed in a phosphate buffer (pH 7.6) containing 5 mM glucose, 1 mM CaCl2, 1 mM MgCl2, and 75 μM cytochrome c±50 μg SOD. Superoxide generation was estimated as SOD-inhibitable reduction of cytochrome c using the extinction coefficient: E550=2.1×10^4M^−1cm^−1.\nHypomagnesemia alone in rodents can promote neutrophil free radical generating activity (Mak et al., Exp. & Clin. Cardiol. 2011, 16(4):121-124; Mak et al., Magnesium Res 2003, 16(2):91-97). In the present study, blood was sampled from rats treated with erlotinib (starting 10 mg/kg/day, oral) and/or Emend (aprepitant, starting 2 mg/kg/day, oral) at 9 weeks of exposure. Circulating neutrophil basal superoxide generating activity was determined as SOD-inhibitable reduction of cytochrome c (FIG. 3A). Plasma 8-isoprostane was assessed by a colorimetric ELISA kit (FIG. 3B). Values for erlotinib±Emend rats were compared to time-matched controls, and are means±SEM of 4-6 rats per group. ** p<0.01 versus control; ++p<0.01 versus erlotinib alone. […] Enhanced systemic oxidative stress, as represented by increased total plasma 8-isoprostane content (FIG. 3B), was prominent by 9 weeks (210% increase, p<0.01)."}, "[2]": {"conditions": "for improvement of AoPmax: NS", "description": "Anesthetized rats were subjected to echocardiography periodically during the treatment regimens using a GE VingMed System Five Echocardiogram System (12, 13, 17, and 18). Heart rate and rectal temperature (35.9-37.5° C.) were monitored constantly during the imaging. Animals were placed on a warming platform with paws taped down to limit any motion during imaging, and a sterile eye lubricant was applied to prevent eye drying during the procedure. Hair over the thorax was removed first with an electric clipper, and then with a depilatory cream (<2 min exposure). Animals were imaged (10 MHz probe) for about 20 minutes at an image depth of 3 cm. This imaging system allows for both cardiac structure and function evaluation in rats. Systolic function, measured as % fractional shortening (% FS) using M-mode imaging, and left ventricular ejection fraction (LVEF), calculated from M-mode measurements, were assessed. Key anatomical parameters (IVSd & s=inter-ventricular septum diameter in diastole and systole; and LVPWd & s=LV posterior wall thickness in diastole or systole) were measured to assess the presence of dilated or hypertrophic cardiomyopathy. Measurements of the aortic and pulmonary artery diameters were used to calculate stroke volumes. Aortic pressure max (AoPmax) was assessed; and spectral Doppler velocities were measured for the pulmonic and aortic outflows to calculate cardiac output (CO), and for the mitral valve inflows to assess ventricular diastolic function (mitral valve E and A wave velocities and the E/A ratio were obtained). After echocardiography, animals were placed in room air until awake, and observed until fully recovered.\nRats treated with erlotinib (starting 10 mg/kg/day, oral) and/or Emend (aprepitant, starting 2 mg/kg/day, oral) received echocardiography at the indicated intervals (FIGS. 5A-5C).\nTable 3 legend: Interventricular septum dimension in diastole (IVSd) and systole (IVSs); and LV posterior wall thickness in diastole (LVPWd) and systole (LVPWs). Rats treated with erlotinib (starting 10 mg/kg/day, oral) and/or Emend (aprepitant, starting 2 mg/kg/day, oral) received echocardiography at the indicated intervals. Values (% change) for erlotinib±Emend rats were compared to time-matched controls, and are means±SEM of 5-7 rats per group."}, "[3]": {"assay": "Plasma magnesium by atomic absorption flame emission spectroscopy", "format": "in vivo, Sprague-Dawley rats", "conditions": "9 week; Emend (starting 2 mg/kg/day) co-treatment with erlotinib", "description": "Individually-housed rats were weighed and food consumption recorded daily to obtain actual drug dosage: time-range average erlotinib dose over 9 weeks was 7.07 mg/kg/day, and time-range average Emend dose over 9 weeks was 1.41 mg/kg/day.\nMagnesium levels in 1:50 or 1:100 diluted, acidified (nitric acid) plasma samples were determined by atomic absorption flame emission spectroscopy (wavelength=285.2 nm) using an AA-6200 Shimadzu spectrophotometer (Columbia, Md.) as described (13). Values obtained from standard curves were mg/dl, and reported as % of control.\nPlasma was assessed for magnesium by flame emission atomic absorption spectroscopy (FIG. 2A). Data are the means±SEM of 5-7 animals per group. * p<0.05, **p<0.01 and # p<0.001 compared with the time-matched control group; +p<0.055 versus erlotinib alone. Plasma SP (FIG. 2B) was assessed by a colorimetric ELISA kit."}, "[4]": {"test_system": "nitro-tyrosine in cardiac tissue", "assay": "Cardiac nitro-tyrosine immunohistochemical assessment", "format": "in vivo, Sprague-Dawley rats", "description": "Cardiac tissue was rapidly excised, rinsed in saline, embedded in OCT compound, quickly frozen and kept at […] until used. Cryosections, 5 um thick, were stained by an indirect, immunohistochemical staining method (13) using rabbit anti-rat Nitrotyrosine antibody (5 ug/ml; Millipore, Billerica, Mass.) and the Vecta-Stain Elite ABC kit immunoperoxidase system (Vector Laboratories, Burlingame, Calif.). Samples were examined under an Olympus BX60 microscope, and multiple images were taken with a digital camera (Evolution Color MP; Media Cybernetics, Silver Spring, Md.). Briefly, fresh frozen sections were fixed in 10% formaldehyde, washed in PBS, incubated with 0.3% hydrogen peroxide in methanol for 30 min to block endogenous peroxidase, washed in PBS and incubated overnight at 4 C with rabbit anti nitrotyrosine antibody, which was applied on every slide except negative control. ABC kit reagents for horseradish peroxidase and 3-3′diaminebenzidine (DAB) were used to visualize the antigen-antibody reaction product as brown color. The sections were counterstained with hematoxylin, rinsed, dehydrated and cleared in series of ethanol and xylene and coverslipped."}, "[5]": {"assay": "Plasma substance P (SP) by ELISA", "format": "in vivo, Sprague-Dawley rats", "conditions": "Emend co-treatment with erlotinib", "description": "(§2) Experiments on animals were conducted in accordance with the principles given in the US Department of Health and Human Services Guide for the Care and Use of Laboratory Animals and were approved by The George Washington University Institutional Animal Care and Use Committee. Male Sprague-Dawley rats (125-150 g) were purchased from Hilltop Lab Animals, Inc. (Scottdale, Pa.). After 1 week of quarantine, all age-matched rats were placed on an ad libitum Mg normal diet (25 mmole magnesium oxide/kg food regarded as 100% recommended daily allowance for rodents) obtained from Harlan-Teklad (Madison, Wis.) containing extracted casein as the diet base supplemented with essential vitamins and nutrients; or the same diet supplemented with erlotinib (OSI Pharmaceuticals, LLC, Northbrook, Ill. 60062, USA) to obtain a starting dose of 10 mg/kg/day, Emend® (as aprepitant, Merck & Co., INC. USA) to obtain a starting dose of 2 mg/kg/day, or both agents at these doses. Individually-housed rats were weighed and food consumption recorded daily to obtain actual drug dosage: time-range average erlotinib dose over 9 weeks was 7.07 mg/kg/day, and time-range average Emend dose over 9 weeks was 1.41 mg/kg/day. Rats had free access to distilled-deionized water, and were on a 12 h light/dark cycle for up to 9 weeks.\nas §1"}, "[6]": {"conditions": "rat, in vivo", "description": "as §2, with “weeks. […]” for “weeks.”"}, "[7]": {"conditions": "9 weeks, Emend co-treatment with erlotinib"}, "[8]": {"conditions": "7 weeks, Emend co-treatment of erlotinib-exposed rats"}, "[9]": {"conditions": "7 weeks, Emend co-treatment, p<0.05 vs erlotinib alone"}, "[10]": {"conditions": "9 weeks, Emend co-treatment, p<0.02"}},
  "note": "Where two headings read alike, the source gives them in different places.",
  "data": [
    {"smiles": "C[C@@H](O[C@H]1OCCN(Cc2n[nH]c(=O)[nH]2)[C@H]1c1ccc(F)cc1)c1cc(C(F)(F)F)cc(C(F)(F)F)c1", "note": "[Emend, aprepitant]", "values": [
      {"measurement": "effect on elevation of total plasma isoprostane caused by erlotinib", "setting": "[1]", "result": "completely blocked"},
      {"measurement": "effect on erlotinib-caused increase in basal superoxide generating activity", "setting": "neutrophils; [7]", "result": "completely prevented"},
      {"measurement": "effect on erlotinib-caused increase in stimulated superoxide generating activity", "setting": "neutrophils; [7]", "result": "completely prevented"},
      {"measurement": "effect on neutrophil superoxide activity", "setting": "neutrophils; rat, in vivo", "result": "no effects"},
      {"measurement": "improvement of LV % FS compared to erlotinib alone", "setting": "[2]; 7 weeks, Emend co-treatment", "result": 65.1, "unit": "%"},
      {"measurement": "improvement of LVPWs", "setting": "[2]; 7 weeks, Emend co-treatment", "result": 53.4, "unit": "%"},
      {"measurement": "protection against erlotinib-induced decline in cardiac output", "setting": "[2]; 7 weeks, Emend co-treatment", "result": 64.9, "unit": "%"},
      {"measurement": "improvement of IVSd", "setting": "[2]; [8]", "result": 48.2, "unit": "%"},
      {"measurement": "improvement of LVEF compared to erlotinib alone", "setting": "[2]; [8]", "result": 71.3, "unit": "%"},
      {"measurement": "improvement of AoPmax", "setting": "[2]; 7 weeks, Emend co-treatment", "result": 86, "unit": "%"},
      {"measurement": "improvement of IVSs", "setting": "[2]; [9]", "result": 76, "unit": "%"},
      {"measurement": "improvement of LVPWd", "setting": "[2]; [9]", "result": 59.1, "unit": "%"},
      {"measurement": "improvement of IVSd", "setting": "[2]; 9 weeks, Emend co-treatment", "result": 42.8, "unit": "%"},
      {"measurement": "improvement of IVSs", "setting": "[2]; 9 weeks, Emend co-treatment", "result": 62, "unit": "%"},
      {"measurement": "improvement of LVPWd", "setting": "[2]; 9 weeks, Emend co-treatment", "result": 49.8, "unit": "%"},
      {"measurement": "improvement of LVPWs", "setting": "[2]; 9 weeks, Emend co-treatment", "result": 58.2, "unit": "%"},
      {"measurement": "improvement of AoPmax", "setting": "[2]; 9 weeks, Emend co-treatment", "result": 64, "unit": "%"},
      {"measurement": "improvement of LV % FS compared to erlotinib alone", "setting": "[2]; [10]", "result": 86.4, "unit": "%"},
      {"measurement": "improvement of LVEF compared to erlotinib alone", "setting": "[2]; [10]", "result": 87.2, "unit": "%"},
      {"measurement": "protection against erlotinib-induced decline in cardiac output", "setting": "[2]; 9 weeks, Emend co-treatment, p<0.02 vs ERL alone", "result": 75.4, "unit": "%"},
      {"measurement": "improvement of mitral valve E/A ratio compared to erlotinib alone", "setting": "[2]; 9 weeks, Emend co-treatment, p<0.05", "result": 84.6, "unit": "%"},
      {"measurement": "impact on LV systolic, diastolic, hemodynamic and anatomical parameters compared to time-paired controls", "setting": "[2]; rat, in vivo", "result": "did not have any significant impact"},
      {"measurement": "attenuation of severity of hypomagnesemia due to erlotinib", "setting": "[3]", "result": "~42", "unit": "%"},
      {"measurement": "nitro-tyrosine formation in the ventricles", "setting": "[4]; 9 wk, Emend co-treatment with erlotinib", "result": "visibly attenuated"},
      {"measurement": "nitro-tyrosine formation", "setting": "[4]; rat, in vivo", "result": "did not have any effect"},
      {"measurement": "effect on erlotinib-induced increases in SP", "setting": "[5]", "result": "almost completely blocked"},
      {"measurement": "food consumption compared to controls", "setting": "[6]", "result": "Neither ERL nor Emend affected food consumption"}
    ]}
  ]
}
